Results published in patent EP4592286A1, “MACROCYCLIC NITROGEN-CONTAINING CROWN ETHER COMPOUND AND USE THEREOF AS PROTEIN KINASE INHIBITOR” (Artivila Biopharma, priority 2022, dated 2024).

Assays:
Type in all cases: biochemical
JAK2 = JAK2 (Homo sapiens, UniProt O60674); assay: experiment of inhibiting kinase activity (Caliper mobility shift assay), JAK2; settings: read-out: inhibition rate JAK2; for inhibition at 0.01 µM: at 10 nM; for inhibition at 0.1 µM: at 100 nM
How it was run: (§1)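 Steps: compound and kinase in 1× kinase buffer, 10 min at room temperature; ATP plus substrate added to start; reaction run at room temperature, then stopped. Conversion read by Caliper; IC50 from four-parameter variable-slope fit of % inhibition against log concentration.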

LRRK2 [1] = target: T1, LRRK2 (Homo sapiens, UniProt Q5S007); assay: experiment of inhibiting kinase activity, LRRK2; settings: for inhibition at 0.01 µM: at 10 nM; for inhibition at 0.01 µM / inhibition at 0.1 µM: read-out: inhibition rate LRRK2; for inhibition at 0.1 µM: at 100 nM
Procedure: (§2) The inhibition rates of tested compounds on JAK1, JAK2, JAK3, TYK2, CDK7, CDK9, EGFR (T790M) and LRRK2 kinases were measured. The test concentrations of the compounds were 10 nM and 100 nM, and the detection was performed by replicate wells. Alternatively, compounds were 3-fold serial diluted from 10 µM for 10 concentrations in replicate wells.

CDK9 = CDK9 (Homo sapiens, UniProt P50750); assay: experiment of inhibiting kinase activity (Caliper mobility shift assay), CDK9; settings: at 100 nM; read-out: inhibition rate CDK9
Procedure: as §2
The inhibitory effects of the compounds on JAK1, JAK2, JAK3, CDK7 and CDK9 kinases were detected by the method of Caliper mobility shift assay. 250 nL of the compound at 100-fold final concentration was transferred to a destination plate 384-well-plate by using a liquid handler Echo 550. A kinase solution at 2.5-fold final concentration was prepared with 1×kinase buffer. 10 µL of the kinase solution with 2.5-fold final concentration was added to compound wells and positive control wells; and 10 µL of 1×kinase buffer was added to negative control wells. The mixture was centrifuged at 1000 rpm for 30 seconds and then incubated at room temperature for 10 minutes. A mixed solution of ATP and kinase substrate at 5/3-fold final concentration was prepared with 1×kinase buffer, and 15 µL of the mixed solution of ATP and substrate at 5/3-fold final concentration was added to start the reaction. The 384-well plate was centrifuged at 1000 rpm for 30 seconds, shaked and mixed evenly, then incubated at room temperature for a corresponding time. 30 µL of stop solution was added to stop the kinase reaction, the mixture was centrifuged at 1000 rpm for 30 seconds, and shaked and mixed evenly. The conversion rate was read by Caliper EZ Reader. The conversion inhibition rate%=(average positive control conversion rate%-sample conversion rate%)/(average positive control conversion rate%-average negative control conversion rate%). Where negative control wells represent the conversion readings of the background well of kinase buffer; and positive control wells represent the conversion readings of wells without compound inhibition. With the log value of concentration as the x axis and the percentage inhibition rate as the y axis, the dose-response curve was fitted by the log (inhibitor) vs. response-variable slope of the analyzing softwar GraphPad Prism 5, and the IC50 values of each compound on enzyme activity were obtained. Calculation formula is as follows: y=Bottom+(Top-Bottom)/(1+10^((LogIC50-x)×hillslope)), where x is logarithm of inhibitor concentration; and Y is % inhibition rate.

JAK1 = JAK1 (Homo sapiens, UniProt P23458); assay: experiment of inhibiting kinase activity (Caliper mobility shift assay), JAK1; settings: read-out: inhibition rate JAK1; for inhibition at 0.1 µM: at 100 nM
How it was run: as §1

TYK2 = TYK2 (Homo sapiens, UniProt P29597); assay: experiment of inhibiting kinase activity, TYK2; settings: read-out: inhibition rate TYK2; for inhibition at 0.1 µM: at 100 nM
Procedure: as §2

JAK3 = target: T2, JAK3 (Homo sapiens, UniProt P52333); assay: experiment of inhibiting kinase activity (Caliper mobility shift assay), JAK3; settings: read-out: inhibition rate JAK3; for inhibition at 0.01 µM: at 10 nM; for inhibition at 0.1 µM: at 100 nM
T2 sequence (P52333 1-1124): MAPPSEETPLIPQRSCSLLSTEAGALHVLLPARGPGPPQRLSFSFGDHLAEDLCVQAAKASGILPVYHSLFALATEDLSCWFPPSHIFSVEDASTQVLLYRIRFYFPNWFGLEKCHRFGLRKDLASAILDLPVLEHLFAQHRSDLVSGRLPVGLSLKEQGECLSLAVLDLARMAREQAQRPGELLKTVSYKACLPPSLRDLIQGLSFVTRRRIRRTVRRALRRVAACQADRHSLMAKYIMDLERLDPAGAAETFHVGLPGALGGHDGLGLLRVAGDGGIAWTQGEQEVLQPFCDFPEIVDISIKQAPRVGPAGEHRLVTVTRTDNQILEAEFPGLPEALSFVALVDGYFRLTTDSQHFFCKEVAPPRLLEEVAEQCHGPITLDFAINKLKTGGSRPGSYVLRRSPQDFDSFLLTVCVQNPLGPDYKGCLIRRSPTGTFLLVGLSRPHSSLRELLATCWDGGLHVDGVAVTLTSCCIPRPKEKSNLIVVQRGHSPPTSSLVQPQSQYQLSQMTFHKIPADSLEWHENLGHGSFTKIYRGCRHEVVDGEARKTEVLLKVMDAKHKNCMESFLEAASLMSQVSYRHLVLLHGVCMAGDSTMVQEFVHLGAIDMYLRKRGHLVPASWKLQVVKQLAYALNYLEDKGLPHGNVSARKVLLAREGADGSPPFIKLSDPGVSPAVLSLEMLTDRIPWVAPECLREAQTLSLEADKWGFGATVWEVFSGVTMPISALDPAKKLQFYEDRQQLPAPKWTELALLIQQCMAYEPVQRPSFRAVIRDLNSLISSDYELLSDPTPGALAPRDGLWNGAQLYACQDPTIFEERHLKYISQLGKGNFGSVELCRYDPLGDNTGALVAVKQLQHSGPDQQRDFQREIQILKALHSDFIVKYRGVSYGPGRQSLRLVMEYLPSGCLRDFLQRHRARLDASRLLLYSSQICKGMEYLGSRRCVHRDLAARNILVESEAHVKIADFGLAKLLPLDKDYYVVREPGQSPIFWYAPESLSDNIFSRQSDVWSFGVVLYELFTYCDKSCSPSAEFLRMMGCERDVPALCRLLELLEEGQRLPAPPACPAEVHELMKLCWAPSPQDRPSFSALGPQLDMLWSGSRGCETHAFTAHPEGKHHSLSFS
How it was run: as §1

CDK7 = CDK7 (Homo sapiens, UniProt P50613); assay: experiment of inhibiting kinase activity (Caliper mobility shift assay), CDK7; settings: read-out: inhibition rate CDK7; for inhibition at 0.01 µM: at 10 nM; for inhibition at 0.1 µM: at 100 nM
How it was run: as §1

LRRK2 [2] = target: T1, LRRK2; assay: experiment of inhibiting LRRK2 kinase activity (ADP-Glo method); settings: Table 4
Procedure: The inhibitory effect of the compounds on the activity of LRRK2 kinase was detected by ADP-Glo method. The diluted solutions of the compounds were transfered to a 384-well plate (784075, Greiner), the plate was sealed and centrifuged at a speed of 1000 g for 1 minute. A kinase solution at 2-fold final concentration was prepared with 1×kinase buffer, 2.5 µl of the kinase solution with 2-fold final concentration was added to the wells, the plate was centrifuged at 1000 g for 30 seconds, and left at room temperature for 10 minutes. A mixed solution of ATP and kinase substrate at 2-fold final concentration was prepared with 1×kinase buffer, and 2.5 µL of mixed solution of ATP and substrate at 2-fold final concentration was added to start the reaction. The plate was centrifuged at 1000 g for 30 seconds, sealed and left at room temperature for 2 hours. 4 µL of ADP-Glo reagent was added and incubated at room temperature for 40 minutes; 8 µL kinase detection reagent was added and incubated at room temperature for another 40 minutes. The luminescence signal value was detected on Envision 2104 microplate reader. The conversion inhibition rate%=100-(compound signal value-positive control signal value)/(blank control signal value-positive control signal value)×100.
The IC50 was calculated with GraphPad 6.0 and the dose-responsive curve of the compounds was plotted as follows: y=Bottom+(Top-Bottom)/(1+10^((logic50-x)×hillslope)), where x was logarithm of inhibitor concentration; and y was % inhibition rate.

JAK1, sequence (P23458 whole entry): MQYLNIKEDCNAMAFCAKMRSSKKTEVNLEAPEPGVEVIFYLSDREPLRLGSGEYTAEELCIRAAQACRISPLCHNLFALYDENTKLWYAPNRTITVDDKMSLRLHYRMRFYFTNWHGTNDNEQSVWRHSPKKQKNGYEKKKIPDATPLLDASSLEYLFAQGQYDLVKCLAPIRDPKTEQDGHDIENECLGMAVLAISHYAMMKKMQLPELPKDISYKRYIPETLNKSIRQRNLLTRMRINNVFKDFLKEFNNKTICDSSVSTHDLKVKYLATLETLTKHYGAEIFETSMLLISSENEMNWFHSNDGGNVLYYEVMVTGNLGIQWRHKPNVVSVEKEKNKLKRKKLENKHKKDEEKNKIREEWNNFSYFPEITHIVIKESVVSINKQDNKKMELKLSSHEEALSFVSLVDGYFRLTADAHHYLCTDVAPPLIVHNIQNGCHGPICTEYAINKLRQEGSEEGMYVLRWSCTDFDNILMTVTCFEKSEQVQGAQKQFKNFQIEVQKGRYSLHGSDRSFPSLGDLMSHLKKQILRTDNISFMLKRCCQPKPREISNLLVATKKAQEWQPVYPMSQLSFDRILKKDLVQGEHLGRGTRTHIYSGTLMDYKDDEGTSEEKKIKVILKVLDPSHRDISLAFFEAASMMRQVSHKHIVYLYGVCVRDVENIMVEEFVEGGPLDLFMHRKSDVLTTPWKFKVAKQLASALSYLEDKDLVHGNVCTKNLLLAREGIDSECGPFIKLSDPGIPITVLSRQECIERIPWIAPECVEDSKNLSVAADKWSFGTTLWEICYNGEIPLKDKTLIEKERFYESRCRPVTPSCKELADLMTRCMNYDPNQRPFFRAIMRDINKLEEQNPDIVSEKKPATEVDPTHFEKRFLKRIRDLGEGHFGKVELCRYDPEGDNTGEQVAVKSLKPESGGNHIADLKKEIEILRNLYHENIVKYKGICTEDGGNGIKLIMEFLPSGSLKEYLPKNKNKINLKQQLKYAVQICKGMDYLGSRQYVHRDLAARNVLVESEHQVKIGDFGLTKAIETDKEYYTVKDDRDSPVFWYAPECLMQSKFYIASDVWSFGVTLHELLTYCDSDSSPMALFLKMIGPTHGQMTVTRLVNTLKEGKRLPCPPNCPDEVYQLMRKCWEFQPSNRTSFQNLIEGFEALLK
CDK9, sequence (P50750 whole entry): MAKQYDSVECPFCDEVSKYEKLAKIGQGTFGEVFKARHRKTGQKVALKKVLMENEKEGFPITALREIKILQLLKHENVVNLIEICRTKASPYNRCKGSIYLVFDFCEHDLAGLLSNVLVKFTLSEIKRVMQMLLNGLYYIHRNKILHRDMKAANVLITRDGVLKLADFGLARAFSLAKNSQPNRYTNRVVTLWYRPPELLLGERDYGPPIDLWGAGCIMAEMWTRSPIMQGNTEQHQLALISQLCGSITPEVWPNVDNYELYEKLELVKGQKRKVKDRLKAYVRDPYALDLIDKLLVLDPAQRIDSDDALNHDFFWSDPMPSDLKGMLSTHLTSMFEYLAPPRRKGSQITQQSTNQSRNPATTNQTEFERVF
CDK9, sequence (O60563 whole entry partner): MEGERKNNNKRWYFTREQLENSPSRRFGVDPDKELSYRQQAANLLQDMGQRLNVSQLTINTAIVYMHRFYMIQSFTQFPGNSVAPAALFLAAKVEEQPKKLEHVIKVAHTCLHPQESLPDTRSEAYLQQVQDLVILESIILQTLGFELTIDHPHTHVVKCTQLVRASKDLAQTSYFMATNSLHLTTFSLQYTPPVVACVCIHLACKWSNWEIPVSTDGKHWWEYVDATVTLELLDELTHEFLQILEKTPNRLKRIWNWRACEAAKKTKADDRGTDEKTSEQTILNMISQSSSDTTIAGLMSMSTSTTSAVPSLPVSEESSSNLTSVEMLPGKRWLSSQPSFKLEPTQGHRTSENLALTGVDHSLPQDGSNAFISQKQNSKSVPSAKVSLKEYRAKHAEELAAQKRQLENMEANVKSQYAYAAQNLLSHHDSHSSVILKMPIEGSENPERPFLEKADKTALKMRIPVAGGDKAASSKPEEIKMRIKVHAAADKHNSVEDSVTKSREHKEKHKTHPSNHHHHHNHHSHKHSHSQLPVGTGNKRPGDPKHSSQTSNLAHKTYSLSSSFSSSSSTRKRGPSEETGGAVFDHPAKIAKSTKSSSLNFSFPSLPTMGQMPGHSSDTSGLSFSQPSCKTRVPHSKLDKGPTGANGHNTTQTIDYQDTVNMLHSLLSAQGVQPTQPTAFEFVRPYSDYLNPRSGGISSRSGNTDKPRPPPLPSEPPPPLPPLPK
T1 sequence (Q5S007 whole entry): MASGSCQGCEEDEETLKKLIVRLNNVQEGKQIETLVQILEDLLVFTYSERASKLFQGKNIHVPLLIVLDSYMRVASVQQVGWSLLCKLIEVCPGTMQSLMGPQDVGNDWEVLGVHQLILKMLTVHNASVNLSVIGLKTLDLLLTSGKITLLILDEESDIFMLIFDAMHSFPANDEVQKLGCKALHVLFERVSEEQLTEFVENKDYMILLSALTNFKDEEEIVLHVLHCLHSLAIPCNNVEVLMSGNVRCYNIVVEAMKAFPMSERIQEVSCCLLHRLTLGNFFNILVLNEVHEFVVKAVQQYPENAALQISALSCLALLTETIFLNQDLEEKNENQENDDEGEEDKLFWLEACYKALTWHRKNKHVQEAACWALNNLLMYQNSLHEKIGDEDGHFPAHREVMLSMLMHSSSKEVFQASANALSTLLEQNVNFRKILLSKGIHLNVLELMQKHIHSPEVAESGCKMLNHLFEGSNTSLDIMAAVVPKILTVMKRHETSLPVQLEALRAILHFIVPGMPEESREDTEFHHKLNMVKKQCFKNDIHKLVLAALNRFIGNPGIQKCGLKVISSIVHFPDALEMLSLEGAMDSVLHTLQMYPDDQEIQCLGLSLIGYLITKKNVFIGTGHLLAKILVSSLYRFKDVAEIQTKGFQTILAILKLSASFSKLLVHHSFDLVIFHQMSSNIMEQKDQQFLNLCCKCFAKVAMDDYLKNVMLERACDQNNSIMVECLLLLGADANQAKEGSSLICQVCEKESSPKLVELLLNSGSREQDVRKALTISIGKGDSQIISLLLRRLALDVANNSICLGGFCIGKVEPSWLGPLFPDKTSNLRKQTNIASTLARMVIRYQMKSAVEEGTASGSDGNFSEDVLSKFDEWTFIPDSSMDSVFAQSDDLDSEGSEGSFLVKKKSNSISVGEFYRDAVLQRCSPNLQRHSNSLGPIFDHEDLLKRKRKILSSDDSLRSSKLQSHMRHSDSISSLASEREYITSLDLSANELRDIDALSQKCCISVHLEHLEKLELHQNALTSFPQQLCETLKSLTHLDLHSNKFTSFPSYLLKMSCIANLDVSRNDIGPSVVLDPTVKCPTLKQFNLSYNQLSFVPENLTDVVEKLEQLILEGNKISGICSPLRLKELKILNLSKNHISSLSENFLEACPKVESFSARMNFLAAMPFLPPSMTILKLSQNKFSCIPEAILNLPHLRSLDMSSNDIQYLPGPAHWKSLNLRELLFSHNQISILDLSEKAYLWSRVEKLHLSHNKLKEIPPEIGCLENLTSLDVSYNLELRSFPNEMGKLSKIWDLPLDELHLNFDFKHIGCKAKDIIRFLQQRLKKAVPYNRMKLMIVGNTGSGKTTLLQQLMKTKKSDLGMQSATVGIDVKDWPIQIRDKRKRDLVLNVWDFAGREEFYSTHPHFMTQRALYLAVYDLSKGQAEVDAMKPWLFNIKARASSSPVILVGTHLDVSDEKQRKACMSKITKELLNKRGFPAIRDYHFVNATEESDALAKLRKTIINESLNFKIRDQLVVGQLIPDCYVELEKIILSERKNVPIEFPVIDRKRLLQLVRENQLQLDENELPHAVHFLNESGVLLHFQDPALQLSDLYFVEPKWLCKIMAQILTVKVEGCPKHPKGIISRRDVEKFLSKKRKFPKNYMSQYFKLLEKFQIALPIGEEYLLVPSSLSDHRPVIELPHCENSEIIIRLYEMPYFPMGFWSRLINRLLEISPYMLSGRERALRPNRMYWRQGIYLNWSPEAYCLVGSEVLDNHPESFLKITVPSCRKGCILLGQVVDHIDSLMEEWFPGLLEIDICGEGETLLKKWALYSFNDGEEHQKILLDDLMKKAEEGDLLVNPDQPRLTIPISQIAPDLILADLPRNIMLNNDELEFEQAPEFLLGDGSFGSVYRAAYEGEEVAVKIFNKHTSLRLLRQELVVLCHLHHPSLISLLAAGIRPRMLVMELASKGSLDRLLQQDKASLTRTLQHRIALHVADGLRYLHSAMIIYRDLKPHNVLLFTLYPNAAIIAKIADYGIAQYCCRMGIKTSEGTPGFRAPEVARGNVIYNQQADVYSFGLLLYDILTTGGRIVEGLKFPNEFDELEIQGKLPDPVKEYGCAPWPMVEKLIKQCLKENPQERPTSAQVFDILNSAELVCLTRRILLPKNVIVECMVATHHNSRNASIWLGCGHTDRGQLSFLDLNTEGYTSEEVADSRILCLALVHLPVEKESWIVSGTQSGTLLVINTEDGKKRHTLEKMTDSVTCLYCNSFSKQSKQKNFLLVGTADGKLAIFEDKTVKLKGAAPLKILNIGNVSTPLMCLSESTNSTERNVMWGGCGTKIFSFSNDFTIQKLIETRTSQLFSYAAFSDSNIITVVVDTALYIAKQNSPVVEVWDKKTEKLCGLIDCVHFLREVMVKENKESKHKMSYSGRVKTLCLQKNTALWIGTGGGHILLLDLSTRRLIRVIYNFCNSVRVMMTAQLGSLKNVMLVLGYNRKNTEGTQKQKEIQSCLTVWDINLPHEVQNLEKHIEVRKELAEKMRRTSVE

SMILES | inhibition at 0.01 µM (JAK2) [%] | inhibition at 0.1 µM (JAK2) [%] | inhibition at 0.1 µM (LRRK2 [1]) [%] | inhibition at 0.1 µM (CDK9) [%] | inhibition at 0.1 µM (JAK1) [%] | inhibition at 0.1 µM (TYK2) [%] | inhibition at 0.01 µM (JAK3) [%] | inhibition at 0.1 µM (JAK3) [%] | inhibition at 0.01 µM (CDK7) [%] | inhibition at 0.1 µM (CDK7) [%] | IC50 (LRRK2 [2]) [nM] | also measured
CC(C)S(=O)(=O)c1ccccc1Nc1nc(Nc2ccc3c(c2)OCCOCCN(C)CCO3)nc2[nH]ccc12 [Example 10, N^4-(2-(isopropylsulfonyl)phenyl)-N^2-(7-methyl-2,3,6,7,8,9-hexahydro-5H-benzo[b][1,4, 7]trioxa[10]azacyclododecan-13-yl)-7H-pyrrolo[2,3-d]pyrimidin-2,4-diamine] | > 80 | > 80 | > 80 | 40 to 79 | 25 to 39 | > 80 | 40 to 79 | > 80 | 40 to 79 | > 80 | – | inhibition at 0.01 µM (LRRK2 [1]): > 80%; IC50 (LRRK2 [1]; kinase activity assay, Table 3): < 50 nM
CN1CCOCCOc2cc(Nc3ncc(F)c(Nc4ccc5[nH]ccc5c4)n3)ccc2OCC1 [Example 30, 5-fluoro-N^4-(1H-indol-5-yl)-N^2-(7-methyl-2,3,6,7,8,9-hexahydro-5H-benzo[b][1,4,7]trioxa[10]azacyclododecan-13-yl)pyrimidin-2,4-diamine] | 40 to 79 | > 80 | 25 to 39 | 40 to 79 | 25 to 39 | 40 to 79 | 25 to 39 | > 80 | – | 40 to 79 | – | –
CC(C)S(=O)(=O)c1ccccc1Nc1nc(Nc2ccc3c(c2)OCCOCCN(C)CCO3)nc2[nH]cnc12 [Example 60, N^6-(2-(isopropylsulfonyl)phenyl)-N^2-(7-methyl-2,3,6,7,8,9-hexahydro-5H-benzo[b][1,4,7]trioxa[10]azacyclododecan-13-yl)-9H-purin-2,6-diamine] | 40 to 79 | > 80 | > 80 | 40 to 79 | – | 40 to 79 | 40 to 79 | > 80 | > 80 | > 80 | – | inhibition at 0.01 µM (LRRK2 [1]): 40 to 79%
CN1CCOCCOc2ccc(Nc3nc(O[C@H]4CC[C@](C)(O)CC4)c4cc[nH]c4n3)cc2OCC1 [Example 87, (1r,4r)-1-methyl-4-((2-((7-methyl-2,3,6,7,8,9-hexahydro-5H-benzo[b][1,4,7]trioxa [10]azacyclododecan-12-yl)amino)-7H-pyrrolo[2,3-d]pyrimidin-4-yl)oxy)cyclohexan-1-ol] | – | – | – | – | – | – | – | – | – | – | < 100 | –
COc1ccccc1Nc1nc(Nc2ccc3c(c2)OCCN(C)CCO3)ncc1C(F)(F)F [Example 95, N^4-(2-methoxyphenyl)-N^2-(4-methyl-3,4,5,6-tetrahydro-2H-benzo[b][1,4,7]dioxazolin-9-yl)-5-(trifluoromethyl)pyrimidin-2,4-diamine] | – | – | – | – | – | – | – | – | – | – | < 100 | –
CC(C)S(=O)(=O)c1ccccc1Nc1nc(Nc2ccc3c(c2)OCCOCCN(S(C)(=O)=O)CCO3)nc2[nH]ccc12 [Example 99, N^4-(2-(isopropylsulfonyl)phenyl)-N^2-(7-(methylsulfonyl)-2,3,6,7,8,9-hexahydro-5H-benzo[b][1,4,7]trioxa[10]azacyclododecan-13-yl)-7H-pyrrolo[2,3-d]pyrimidin-2,4-diamine] | 40 to 79 | > 80 | > 80 | 25 to 39 | 40 to 79 | > 80 | 40 to 79 | > 80 | 40 to 79 | > 80 | – | inhibition at 0.01 µM (JAK1; at 10 nM): 25 to 39%; inhibition at 0.01 µM (TYK2; at 10 nM): 25 to 39%
CN1CCOCCOc2ccc(Nc3ncc(Cl)c(O[C@H]4CC[C@@](C)(O)CC4)n3)cc2OCC1 [Example 104, (1s,4s)-4-((5-chloro-2-((7-methyl-2,3,6,7,8,9-hexahydro-5H-benzo[b][1,4,7]trioxa[10]azacyclododecan-12-yl)amino)pyrimidin-4-yl)oxy)-1-methylcyclohexan-1-ol] | – | – | – | – | – | – | – | – | – | – | < 100 | –
Cc1cnc(Nc2ccc3c(c2)OCCN(C)CCOCCO3)nc1O[C@H]1CC[C@@](C)(O)CC1 [Example 105, (1s,4s)-1-methyl-4-((5-methyl-2-((7-methyl-2,3,6,7,8,9-hexahydro-5H-benzo[b][1,4, 7]trioxa[10]azacyclododecan-12-yl)amino)pyrimidin-4-yl)oxy)cyclohexan-1-ol] | – | – | – | – | – | – | – | – | – | – | < 100 | –
CNc1cc(O[C@H]2CC[C@@](C)(O)CC2)nc(Nc2ccc3c(c2)OCCN(C)CCO3)n1 [Example 108, (1s,4s)-1-methyl-4-((2-((4-methyl-3,4,5,6-tetrahydro-2H-benzo[b][1,4,7]dioxazolin-9-yl)amino)-6-(methylamino)pyrimidin-4-yl)oxy)cyclohexan-1-ol] | – | – | – | – | – | – | – | – | – | – | 500 to 1000 | –
CN1CCOCCOc2ccc(Nc3nc(O[C@H]4CC[C@@](C)(O)CC4)c4ccccc4n3)cc2OCC1 [Example 109, (1s,4s)-1-methyl-4-((2-((7-methyl-2,3,6,7,8,9-hexahydro-5H-benzo[b][1,4,7]trioxa[1 0]azacyclododecan-12-yl)amino)quinazolin-4-yl)oxy)cyclohexan-1-ol] | – | – | – | – | – | – | – | – | – | – | 100 to 500 | –
